Assay results from article PMC5410048, “A retro-inverso cell-penetrating peptide for siRNA delivery” (Journal of Nanobiotechnology, 2017).
Non-standard residues stand in square brackets, D forms with d. Residues, ends and D or L forms follow the SMILES beside them.

How the values were obtained:
[1] = not given; remark: listed apart in the source
[2] = not given; remark: listed apart in the source
[3] = not given; remark: listed apart in the source

| Compound | Mean size (nm) at 0 h, Nb (%) [nm] | Tryptophan fluorescence emission maximum, free peptide [1] [nm] | Blue shift of tryptophan fluorescence with excess liposomes [2] [nm] | Tryptophan fluorescence emission maximum with siRNA [3] [nm] |
| --- | --- | --- | --- | --- |
| CC(C)C[C@@H](NC(=O)CN)C(=O)N[C@H](Cc1c[nH]c2ccccc12)C(=O)N[C@H](CCCNC(=N)N)C(=O)N[C@H](C)C(=O)N[C@H](CC(C)C)C(=O)N[C@H](Cc1c[nH]c2ccccc12)C(=O)N[C@H](CCCNC(=N)N)C(=O)N[C@H](CC(C)C)C(=O)N[C@H](CC(C)C)C(=O)N[C@H](CCCNC(=N)N)C(=O)N[C@H](CO)C(=O)N[C@H](CC(C)C)C(=O)N[C@H](Cc1c[nH]c2ccccc12)C(=O)N[C@H](CCCNC(=N)N)C(=O)N[C@H](CC(C)C)C(=O)N[C@H](CC(C)C)C(=O)N[C@H](Cc1c[nH]c2ccccc12)C(=O)N[C@H](CCCCN)C(=O)O (H-G[dL][dW][dR][dA][dL][dW][dR][dL][dL][dR][dS][dL][dW][dR][dL][dL][dW][dK]-OH) | 30 | – | – | – |
| CC(C)C[C@@H](NC(=O)[C@@H](Cc1c[nH]c2ccccc12)NC(=O)[C@@H](CCCNC(=N)N)NC(=O)[C@@H](C)NC(=O)[C@@H](CC(C)C)NC(=O)[C@@H](Cc1c[nH]c2ccccc12)NC(=O)[C@@H](CCCNC(=N)N)NC(=O)[C@@H](CC(C)C)NC(=O)[C@@H](CC(C)C)NC(=O)[C@@H](CCCNC(=N)N)NC(=O)[C@@H](CO)NC(=O)[C@@H](CC(C)C)NC(=O)[C@@H](Cc1c[nH]c2ccccc12)NC(=O)[C@@H](CCCNC(=N)N)NC(=O)[C@@H](CC(C)C)NC(=O)[C@@H](CC(C)C)NC(=O)[C@@H](Cc1c[nH]c2ccccc12)NC(=O)[C@H](N)CCCCN)C(=O)NCC(=O)O (H-[dK][dW][dL][dL][dR][dW][dL][dS][dR][dL][dL][dR][dW][dL][dA][dR][dW][dL]G-OH) | – | 345 | 10 | 340 |
| H-GLWRALWRLLRSLWRLLWK-OH | – | 348 | – | 340 |
